According to patent publication US10307404B1, “Ocular formulations for drug-delivery to the posterior segment of the eye” (priority 2013, dated 2019):
Several values for one entry are separate records, joined by “and”; a condition that tells them apart may be missing. Equal entries are not always repeated. Where two headings read alike, the source gives them in different places.

Columns and labels:
HUVECs = test: Inhibition of VEGF-stimulated mitogenesis in HUVECs; format: cell-based; settings: Homo sapiens, HUVEC
KDR (VEGFR-2) = KDR (VEGFR-2) (Homo sapiens, UniProt P35968); test: In vitro inhibition of tyrosine kinases; format: biochemical; settings: 300 nM (170.67 ng/mL)
KDR (VEGFR-2), sequence (P35968 20-1356): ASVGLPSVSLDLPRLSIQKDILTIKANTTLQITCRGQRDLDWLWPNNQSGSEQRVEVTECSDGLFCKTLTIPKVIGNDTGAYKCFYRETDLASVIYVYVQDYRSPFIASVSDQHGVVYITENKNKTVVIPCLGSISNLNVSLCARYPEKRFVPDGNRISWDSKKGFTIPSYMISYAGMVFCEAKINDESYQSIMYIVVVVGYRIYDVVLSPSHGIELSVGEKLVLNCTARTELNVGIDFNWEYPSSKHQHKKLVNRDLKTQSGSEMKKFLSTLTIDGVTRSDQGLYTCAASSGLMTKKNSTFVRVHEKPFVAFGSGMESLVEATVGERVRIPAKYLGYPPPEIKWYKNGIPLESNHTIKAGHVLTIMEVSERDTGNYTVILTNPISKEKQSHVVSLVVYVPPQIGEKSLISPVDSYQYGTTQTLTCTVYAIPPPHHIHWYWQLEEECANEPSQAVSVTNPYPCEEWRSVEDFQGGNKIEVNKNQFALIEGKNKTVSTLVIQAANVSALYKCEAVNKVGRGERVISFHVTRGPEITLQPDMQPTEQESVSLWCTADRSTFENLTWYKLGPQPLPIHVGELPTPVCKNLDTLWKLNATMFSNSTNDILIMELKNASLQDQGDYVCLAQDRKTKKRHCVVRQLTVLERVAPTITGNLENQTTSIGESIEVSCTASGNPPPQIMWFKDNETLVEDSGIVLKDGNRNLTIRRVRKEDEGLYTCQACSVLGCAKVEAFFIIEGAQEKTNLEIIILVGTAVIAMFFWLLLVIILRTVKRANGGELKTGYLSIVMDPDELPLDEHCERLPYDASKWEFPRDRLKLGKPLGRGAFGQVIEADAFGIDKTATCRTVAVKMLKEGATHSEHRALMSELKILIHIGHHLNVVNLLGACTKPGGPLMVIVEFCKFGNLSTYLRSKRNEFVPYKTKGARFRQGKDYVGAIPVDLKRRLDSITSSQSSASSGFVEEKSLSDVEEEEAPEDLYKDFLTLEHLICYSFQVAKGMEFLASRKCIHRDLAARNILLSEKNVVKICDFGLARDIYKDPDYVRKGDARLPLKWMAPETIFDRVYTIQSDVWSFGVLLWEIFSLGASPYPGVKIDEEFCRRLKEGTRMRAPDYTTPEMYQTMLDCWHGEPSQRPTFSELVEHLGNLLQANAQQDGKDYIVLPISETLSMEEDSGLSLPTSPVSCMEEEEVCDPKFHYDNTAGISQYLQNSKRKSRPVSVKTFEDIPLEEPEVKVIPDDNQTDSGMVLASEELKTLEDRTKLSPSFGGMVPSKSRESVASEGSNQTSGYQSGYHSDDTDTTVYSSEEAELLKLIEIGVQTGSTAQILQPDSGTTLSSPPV

[1] = PK of topical ocular sodium phosphate-based Gel Drop, concentrations 1 hour after last dose; format: in vivo, Dutch-belted rabbits; settings: Dutch-belted, rabbit
Text: The Gel Drop of Compound-I was applied to eyes of Dutch-belted rabbits.

In the case of `Cl.NC(=O)c1c(OCc2c(F)cc(Br)cc2F)nsc1NC(=O)NCCCCN1CCCC1` [Compound-I, 3-[(4-bromo-2,6-difluorophenyl)methoxy]-5-[[[[4-(1-pyrrolidinyl)butyl]amino]carbonyl]amino]-4-isothiazolecarboxamide hydrochloride], the IC50 (HUVECs) is reported as 14.1 nM and 0.008 µg/mL, the VEGFR-2 kinase function (KDR (VEGFR-2)) is reported as “completely inhibited” and the concentration at 1 h ([1]; AH (aqueous humor), 2 mg/ml, pH 6, 2 mg/ml pH 6 BAK 0.005% Gly 2% Osmo 232, 3x/day 5 days, read-out: Mean [AH]) is reported as 30 nM. The concentration at 1 h ([1]; AH (aqueous humor), 2 mg/ml, pH 6, 2 mg/ml pH 6.0 Phos 0.02% BAK 0.005% Gly 2% PS80 1% Tylox 0.2%, 3x/day 5 days, read-out: Mean [AH]) was 13.8 nM, the concentration at 1 h ([1]; AH (aqueous humor), 2 mg/ml, pH 6, 2 mg/ml pH 6 Phos 0.05% BAK 0.005% Gly 2% PS80 1% Osmo 261, 3x/day 5 days, read-out: Mean [AH]) was 25.5 nM and the concentration at 1 h ([1]; AH (aqueous humor), 2 mg/ml, pH 6, 2 mg/ml pH 6.0 Phos 0.05% BAK 0.005% Gly 2%, 3x/day 5 days, read-out: Mean [AH]) was 32.2 nM. The concentration at 1 h ([1]; AH (aqueous humor), 2 mg/ml, pH 6, 2 mg/ml pH 6.0 Phos 0.2% BAK 0.005% Gly 2%, 3x/day 5 days, read-out: Mean [AH]) was 14.8 nM, the concentration at 1 h ([1]; AH (aqueous humor), 4 mg/ml, pH 6, 4 mg/ml pH 6.0 Phos 0.2% BAK 0.005% Gly 2%, 3x/day 5 days, read-out: Mean [AH]) was 25 nM and the concentration at 1 h ([1]; AH (aqueous humor), 4 mg/ml, pH 6, 4 mg/ml pH 6.0 Phos 2% BAK 0.005% Gly 2% PS80 1% Tylox 0.2%, 3x/day 5 days, read-out: Mean [AH]) was 21.1 nM. It also gave a concentration at 1 h ([1]; AH (aqueous humor), 6 mg/ml, pH 5.9, 6 mg/ml pH 5.9 Phos 0.05% BAK 0.005% Gly 2% PS80 1% Tylox 0.1% Polox 0.2% Osmo 270, 3x/day 4 days, read-out: Mean [AH]) of 222 nM, a concentration at 1 h ([1]; AH (aqueous humor), 6 mg/ml, pH 5.9, 6 mg/ml pH 5.9 Phos 0.1% BAK 0.005% Gly 2% Polox 0.2% Osmo 257, 3x/day 4 days, read-out: Mean [AH]) of 55.4 nM and a concentration at 1 h ([1]; aqueous humor (AH), 1 mg/ml, pH 6, 1 mg/ml pH 6 BAK 0.005% Gly 2% Osmo 234, 3x/day 5 days, read-out: Mean [AH]) of 17.1 nM. It also gave a concentration at 1 h ([1]; aqueous humor (AH), 1 mg/ml, pH 6, 1 mg/ml pH 6.0 Phos 0.05% BAK 0.005% Gly 2% PS80 0.01% Tylox 0.2%, 3x/day 5 days, read-out: Mean [AH]) of 9.09 nM, a concentration at 1 h ([1]; aqueous humor (AH), 1 mg/ml, pH 6, 1 mg/ml pH 6 Phos 0.05% BAK 0.005% Gly 2%, 3x/day 5 days, read-out: Mean [AH]) of 16.4 nM and a concentration at 1 h ([1]; aqueous humor (AH), 1 mg/ml, pH 6, 1 mg/ml pH 6.0 Phos 0.2% BAK 0.005% Gly 2% PS80 1% Tylox 0.2%, 3x/day 5 days, read-out: Mean [AH]) of 6.27 nM. It also gave a concentration at 1 h ([1]; aqueous humor (AH), 1 mg/ml, pH 6, 1 mg/ml pH 6.0 Phos 0.2% BAK 0.005% Gly 2%, 3x/day 5 days, read-out: Mean [AH]) of 20.6 nM, a concentration at 1 h ([1]; aqueous humor (AH), 2 mg/ml, pH 6, 2 mg/ml pH 6 Phos 0.05% BAK 0.005% Gly 2% Osmo 244, 3x/day 5 days, read-out: Mean [AH]) of 27.8 nM and a concentration at 1 h ([1]; aqueous humor (AH), 2 mg/ml, pH 6, 2 mg/ml pH 6.0 Phos 0.05% BAK 0.005% Gly 2% PS80 1% Tylox 0.2%, 3x/day 5 days, read-out: Mean [AH]) of 18.2 nM. It also gave a concentration at 1 h ([1]; aqueous humor (AH), 2 mg/ml, pH 6, 2 mg/ml pH 6.0 Phos 0.1% BAK 0.005% Gly 2%, 3x/day 5 days, read-out: Mean [AH]) of 18.9 nM, a concentration at 1 h ([1]; aqueous humor (AH), 2 mg/ml, pH 6, 2 mg/ml pH 6 Phos 0.2% BAK 0.005% Gly 2% Osmo 257, 3x/day 5 days, read-out: Mean [AH]) of 29.5 nM and a concentration at 1 h ([1]; aqueous humor (AH), 2 mg/ml, pH 6, 2 mg/ml pH 6 Phos 0.2% BAK 0.005% Gly 2% PS80 1% Osmo 281, 3x/day 5 days, read-out: Mean [AH]) of 19.7 nM. The concentration at 1 h ([1]; aqueous humor (AH), 2 mg/ml, pH 6.1, 2 mg/ml pH 6.1 Phos […] Osmo 34, 3x/day 4 days, read-out: Mean [AH]) was 13.7 nM, the concentration at 1 h ([1]; choroid, 1 mg/ml, pH 6, 1 mg/ml pH 6 BAK 0.005% Gly 2% Osmo 234, 3x/day 5 days, read-out: MEAN [choroid]) was 359 nM and the concentration at 1 h ([1]; choroid, 1 mg/ml, pH 6, 1 mg/ml pH 6 BAK 0.005% Gly 2% PS80 1% Tylox 0.1% Polox 0.2% Osmo 237, 3x/day 5 days, read-out: MEAN [choroid]) was 339 nM. It also gave a concentration at 1 h ([1]; choroid, 1 mg/ml, pH 6, 1 mg/ml pH 6.0 Phos 0.05% BAK 0.005% Gly 2% PS80 0.01% Tylox 0.2%, 3x/day 5 days, read-out: MEAN [choroid]) of 295 nM, a concentration at 1 h ([1]; choroid, 1 mg/ml, pH 6, 1 mg/ml pH 6 Phos 0.05% BAK 0.005% Gly 2%, 3x/day 5 days, read-out: MEAN [choroid]) of 398 nM and a concentration at 1 h ([1]; choroid, 1 mg/ml, pH 6, 1 mg/ml pH 6.0 Phos 0.2% BAK 0.005% Gly 2% PS80 1% Tylox 0.2%, 3x/day 5 days, read-out: MEAN [choroid]) of 423 nM. For the same compound, the concentration at 1 h ([1]; choroid, 1 mg/ml, pH 6, 1 mg/ml pH 6.0 Phos 0.2% BAK 0.005% Gly 2%, 3x/day 5 days, read-out: MEAN [choroid]) was 519 nM, the concentration at 1 h ([1]; choroid, 1 mg/ml, pH 6.1, 1 mg/ml pH 6.1 BAK 0.005% Gly 2% Osmo 230, 3x/day 5 days, read-out: MEAN [choroid]) was 537 nM and the concentration at 1 h ([1]; choroid, 2 mg/ml, pH 5.9, 2 mg/ml pH 5.9 Phos 0.05% BAK 0.005% Gly 2% Osmo 233, 3x/day 5 days, read-out: MEAN [choroid]) was 362 nM. The concentration at 1 h ([1]; choroid, 2 mg/ml, pH 6, 2 mg/ml pH 6 BAK 0.005% Gly 2% Osmo 232, 3x/day 5 days, read-out: MEAN [choroid]) was 589 nM, the concentration at 1 h ([1]; choroid, 2 mg/ml, pH 6, 2 mg/ml pH 6.0 Phos 0.02% BAK 0.005% Gly 2% PS80 1% Tylox 0.2%, 3x/day 5 days, read-out: MEAN [choroid]) was 599 nM and the concentration at 1 h ([1]; choroid, 2 mg/ml, pH 6, 2 mg/ml pH 6 Phos 0.05% BAK 0.005% Gly 2% Osmo 244, 3x/day 5 days, read-out: MEAN [choroid]) was 422 nM. The concentration at 1 h ([1]; choroid, 2 mg/ml, pH 6, 2 mg/ml pH 6 Phos 0.05% BAK 0.005% Gly 2% PS80 1% Osmo 261, 3x/day 5 days, read-out: MEAN [choroid]) was 559 nM, the concentration at 1 h ([1]; choroid, 2 mg/ml, pH 6, 2 mg/ml pH 6.0 Phos 0.05% BAK 0.005% Gly 2%, 3x/day 5 days, read-out: MEAN [choroid]) was 528 nM and the concentration at 1 h ([1]; choroid, 2 mg/ml, pH 6, 2 mg/ml pH 6.0 Phos 0.1% BAK 0.005% Gly 2%, 3x/day 5 days, read-out: MEAN [choroid]) was 525 nM.
